Results on 21 molecules are retold here after US8796256B2 (Janssen Pharmaceutica NV, priority 2010, dated 2014).

The target in experiment [1] is T1, ERR1 (also known as ERR-α or ERR-1) (Homo sapiens, UniProt P11474).
T1 sequence (P11474 193-421 limits assumed): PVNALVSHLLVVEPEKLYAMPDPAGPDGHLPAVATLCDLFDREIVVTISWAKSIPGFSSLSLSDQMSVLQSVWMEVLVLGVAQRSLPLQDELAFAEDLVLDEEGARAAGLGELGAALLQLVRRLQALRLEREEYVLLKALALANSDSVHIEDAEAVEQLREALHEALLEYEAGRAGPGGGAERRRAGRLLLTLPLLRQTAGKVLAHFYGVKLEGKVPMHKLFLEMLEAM
Description: TR-FRET assay (disruption of co-activator peptide binding to ERR1 LBD). To be noted: 6 nM 6His-ERR1LBD, 6 nM GST-SRC-2 peptide; average of 3 independent experiments. The format is biochemical. The method in brief:
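His-tagged ERR1 ligand-binding domain and GST-labelled SRC-2 peptide, each 6 nM, equilibrated at 25° C for 4-18 h in Tris pH 8/Hepes/KCl/DTT/delipidated BSA buffer. Compound-induced loss of co-activator binding read as Eu cryptate→XL665 energy transfer; values from hyperbolic curve fits averaged over 3 independent runs.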
On the technique in general: TR-FRET usually uses a lanthanide donor and a delayed reading to cut background.

A further experiment concerns Zucker fa/fa male rats. In words: Zucker fa/fa Rat Model Assay. The format is in vivo. To be noted: po, 120 h, 10 mg/kg orally once a day for 4 days. The source says:
Zucker fa/fa is a monogenic model of frank diabetes due to a mutation on the fa gene truncating the leptin receptor and preventing its interaction with its peptide hormone. This mutation results in a hyperphagic phenotype and the rodent develops obesity, hyperlipidemia, fasting hyperglycemia and insulin resistance. Zucker fa/fa male rats were received at four weeks of age and allowed to acclimate for one week. At five weeks of age the animals were single housed in cages in a temperature-controlled room with 12-hour light/dark cycle. The rats were allowed ad libitum access to water and food and throughout the study were maintained on a Purina 5008 diet. Animals were sorted based primarily on fed insulin levels and circulating triglycerides. Animals were dosed orally once a day (10 mg/kg) in the morning for 4 days. The vehicle used was either 20% HPβCD (Hydroxypropyl Beta Cyclodextrin) or 15% Vitamin E/30% PEG-400 (Polyethylene Glycol 400). Fed insulin and triglycerides were measured using blood collected from the tail vein at day 5. Serum plasma samples were prepared by centrifugation in EDTA (Ethylenediaminetetraacetic acid) containing tubes, transferred into 96 well plates and stored at −80° C.

Setting [2] is: blood from tail vein at day 5, read-out: % Change Fed Insulin Levels.
[3] abbreviates: blood from tail vein at day 5, read-out: % Change Fed Triglyceride Levels.

Usually pEC50 stands for −log10 of the EC50, conventionally taken in molar units.

Molecules are shown by their SMILES. pEC50: −log10 of the molar value. Where two headings read alike, the source gives them in different places.

The molecule `O=C(O)CN1C(=O)S/C(=C\c2ccc3c(c2)c(Cl)nn3Cc2ccc(Cl)cc2C(F)(F)F)C1=O` [Compound 287, [(5Z)-5-({1-[4-Chloro-2-(trifluoromethyl)benzyl]-3-chloro-1H-indazol-5-yl}methylidene)-2,4-dioxo-1,3-thiazolidin-3-yl]acetic acid] showed a negative-log EC50 (pEC50) in experiment [1] of 7.66. The change in vivo at 10 mg/kg in the experiment with Zucker fa/fa male rats (setting [2]) was -53%; with Zucker fa/fa male rats (setting [3]) it was -36%.

`N=C(N)NOCCN1C(=O)S/C(=C\c2ccc3c(cnn3Cc3ccc(Cl)cc3C(F)(F)F)c2)C1=O` [Compound 91, 1-{2-[(5Z)-5-({1-[4-Chloro-2-(trifluoromethyl)benzyl]-1H-indazol-5-yl}methylidene)-2,4-dioxo-1,3-thiazolidin-3-yl]ethoxy}guanidine] showed a pEC50 in experiment [1] of 7.24. In addition, the change in vivo at 10 mg/kg in the experiment with Zucker fa/fa male rats (setting [2]) is -68%; in the experiment with Zucker fa/fa male rats (setting [3]) it was -60%.

Regarding `Cc1nn(Cc2ccc(Cl)cc2C(F)(F)F)c2ccc(/C=C3\SC(=O)N(CC(=O)NS(=O)(=O)N4CCCC4)C3=O)cc12` [Compound 40, 2-[(5Z)-5-({1-[4-Chloro-2-(trifluoromethyl)benzyl]-3-methyl-1H-indazol-5-yl}methylidene)-2,4-dioxo-1,3-thiazolidin-3-yl]-N-(pyrrolidin-1-ylsulfonyl)acetamide], in experiment [1], the pEC50 is 7.27. Besides, the change in vivo at 10 mg/kg with Zucker fa/fa male rats (setting [2]) is -10%; in the experiment with Zucker fa/fa male rats (setting [3]), -23%.

The molecule `CS(=O)(=O)NN1C(=O)S/C(=C\c2ccc3c(cnn3Cc3ccc(Cl)cc3C(F)(F)F)c2)C1=O` [Compound 361, N-[(5Z)-5-({1-[4-Chloro-2-(trifluoromethyl)benzyl]-1H-indazol-5-yl}methylidene)-2,4-dioxo-1,3-thiazolidin-3-yl]methanesulfonamide] showed a pEC50 in experiment [1] of 7.89. The figures for the change in vivo at 10 mg/kg in the experiment on Zucker fa/fa male rats (setting [2]) and in the experiment with Zucker fa/fa male rats (setting [3]) were -58% and -43%, respectively.

Molecule `O=C1S/C(=C\c2ccc3c(cnn3Cc3ccc(Cl)cc3C(F)(F)F)c2)C(=O)N1C1CCN(CCO)CC1` [Compound 148, (5Z)-5-({1-[4-Chloro-2-(trifluoromethyl)benzyl]-1H-indazol-5-yl}methylidene)-3-[1-(2-hydroxyethyl)piperidin-4-yl]-1,3-thiazolidine-2,4-dione] gave a pEC50 in experiment [1] of 7.82. For the same molecule, the change in vivo at 10 mg/kg in the experiment on Zucker fa/fa male rats (setting [2]) was -77%; in the experiment with Zucker fa/fa male rats (setting [3]), -40%.

`C[C@H](N)CN1C(=O)S/C(=C\c2ccc3c(cnn3Cc3ccc(Cl)cc3C(F)(F)F)c2)C1=O` [Compound 155, 3-[(2S)-2-Aminopropyl]-(5Z)-5-({1-[4-chloro-2-(trifluoromethyl)benzyl]-1H-indazol-5-yl}methylidene)-1,3-thiazolidine-2,4-dione] had a pEC50 in experiment [1] of 7.62. The results for the change in vivo at 10 mg/kg in the experiment on Zucker fa/fa male rats (setting [2]) and in the experiment on Zucker fa/fa male rats (setting [3]) were -60% and -55%, respectively.

Molecule `COc1ccc(Cn2ncc3cc(/C=C4\SC(=O)N(CCN5CCOCC5)C4=O)ccc32)c(C(F)(F)F)c1` [Compound 8, (5Z)-5-[(1-{[4-(Methyloxy)-2-(trifluoromethyl)phenyl]methyl}-1H-indazol-5-yl)methylidene]-3-(2-morpholin-4-ylethyl)-1,3-thiazolidine-2,4-dione] gave a pEC50 in experiment [1] of 8.10. For the same molecule, the change in vivo at 10 mg/kg in the experiment on Zucker fa/fa male rats (setting [2]) was -21%; with Zucker fa/fa male rats (setting [3]), -19%.

`O=C1S/C(=C\c2ccc3c(cnn3Cc3ccc(Cl)cc3C(F)(F)F)c2)C(=O)N1C[C@H]1COCCN1` [Compound 170, (5Z)-5-({1-[4-Chloro-2-(trifluoromethyl)benzyl]-1H-indazol-5-yl}methylidene)-3-[(3S)-morpholin-3-ylmethyl]-1,3-thiazolidine-2,4-dione] gave a pEC50 in experiment [1] of 7.82. In addition, the change in vivo at 10 mg/kg in the experiment on Zucker fa/fa male rats (setting [2]) is -52%; in the experiment on Zucker fa/fa male rats (setting [3]) it was -61%.

`NS(=O)(=O)NC(=O)CN1C(=O)S/C(=C\c2ccc3c(cnn3Cc3ccc(Cl)cc3C(F)(F)F)c2)C1=O` [Compound 31, 2-[(5Z)-5-({1-[4-Chloro-2-(trifluoromethyl)benzyl]-1H-indazol-5-yl}methylidene)-2,4-dioxo-1,3-thiazolidin-3-yl]-N-sulfamoylacetamide] showed a pEC50 in experiment [1] of 7.72. Moreover, the change in vivo at 10 mg/kg is -51% in the experiment with Zucker fa/fa male rats (setting [2]) and -14% with Zucker fa/fa male rats (setting [3]).

`CS(=O)(=O)NN1C(=O)S/C(=C\c2ccc3c(c2)c(F)nn3Cc2ccc(Cl)cc2C(F)(F)F)C1=O` [Compound 368, N-[(5Z)-5-({1-[4-Chloro-2-(trifluoromethyl)benzyl]-3-fluoro-1H-indazol-5-yl}methylidene)-2,4-dioxo-1,3-thiazolidin-3-yl]methanesulfonamide]: the pEC50 in experiment [1] is 8.52.

`O=C1S/C(=C\c2ccc3c(cnn3Cc3ccc(Cl)cc3C(F)(F)F)c2)C(=O)N1CCn1ccnc1` [Compound 296, (5Z)-5-({1-[4-Chloro-2-(trifluoromethyl)benzyl]-1H-indazol-5-yl}methylidene)-3-[2-(1H-imidazol-1-yl)ethyl]-1,3-thiazolidine-2,4-dione] gave a pEC50 in experiment [1] of 7.77.

As to `COC(=O)C(C1CCOCC1)N1C(=O)S/C(=C\c2ccc3c(cnn3Cc3ccc(Cl)cc3C(F)(F)F)c2)C1=O` (stereo not drawn) [Compound 209, Methyl [(5Z)-5-({1-[4-chloro-2-(trifluoromethyl)benzyl]-1H-indazol-5-yl}methylidene)-2,4-dioxo-1,3-thiazolidin-3-yl](tetrahydro-2H-pyran-4-yl)acetate], the pEC50 in experiment [1] was 7.06. This pEC50 is 0.71 log units lower than that of the molecule before.

`NC1(CN2C(=O)S/C(=C\c3ccc4c(cnn4Cc4ccc(C(F)(F)F)cc4C(F)(F)F)c3)C2=O)CCOCC1` [Compound 310, (5Z)-3-[(4-Aminotetrahydro-2H-pyran-4-yl)methyl]-5-({1-[2,4-bis(trifluoromethyl)benzyl]-1H-indazol-5-yl}methylidene)-1,3-thiazolidine-2,4-dione] had a negative logarithm of the EC50 (pEC50) in experiment [1] of 7.07.

For the molecule `CN1CCC(=O)C(N2C(=O)S/C(=C\c3ccc4c(cnn4Cc4ccc(Cl)cc4C(F)(F)F)c3)C2=O)C1` (stereo not drawn) [Compound 344, (5Z)-5-({1-[4-Chloro-2-(trifluoromethyl)benzyl]-1H-indazol-5-yl}methylidene)-3-(1-methyl-4-oxopiperidin-3-yl)-1,3-thiazolidine-2,4-dione], the pEC50 in experiment [1] is 7.40.

In turn, `COc1ccc(Cn2ncc3cc(/C=C4\SC(=O)N(CCN5CCN(CCO)CC5)C4=O)ccc32)c(C(F)(F)F)c1` [Compound 16, (5Z)-3-{2-[4-(2-Hydroxyethyl)piperazin-1-yl]ethyl}-5-({1-[4-methoxy-2-(trifluoromethyl)benzyl]-1H-indazol-5-yl)methylidene)-1,3-thiazolidine-2,4-dione] showed a pEC50 in experiment [1] of 7.15.

Turning to `CN(C)CCCN1C(=O)S/C(=C\c2ccc3c(cnn3Cc3ccc(C(F)(F)F)cc3C(F)(F)F)c2)C1=O` [Compound 6, (5Z)-5-[(1-{[2,4-Bis(trifluoromethyl)-phenyl]methyl}-1H-indazol-5-yl)methylidene]-3-[3-(dimethylamino)-propyl]-1,3-thiazolidine-2,4-dione], the pEC50 in experiment [1] is 7.46.

In the case of `O=C1S/C(=C\c2ccc3c(cnn3Cc3ccc(Cl)cc3C(F)(F)F)c2)C(=O)N1CC(=O)N1CCNS1(=O)=O` [Compound 415], in experiment [1], the pEC50 is 7.92.

Molecule `O=C1S/C(=C\c2ccc3c(cnn3Cc3ccc(C(F)(F)F)cc3C(F)(F)F)c2)C(=O)N1O` [Compound 291, (5Z)-5-({1-[2,4-Bis(trifluoromethyl)benzyl]-1H-indazol-5-yl}methylidene)-3-hydroxy-1,3-thiazolidine-2,4-dione] gave a pEC50 in experiment [1] of 7.33.

Consider `NC(=O)c1nn(Cc2ccc(Cl)cc2C(F)(F)F)c2ccc(/C=C3\SC(=O)N(CC(=O)O)C3=O)cc12` [Compound 417, [(5Z)-5-({3-Carbamoyl-1-[4-chloro-2-(trifluoromethyl)benzyl]-1H-indazol-5-yl}methylidene)-2,4-dioxo-1,3-thiazolidin-3-yl]acetic acid], for which the pEC50 in experiment [1] is 7.30.

`COCCN1C[C@H](O)C[C@H]1CN1C(=O)S/C(=C\c2ccc3c(cnn3Cc3ccc(Cl)cc3C(F)(F)F)c2)C1=O` [Compound 188, (5Z)-5-({1-[4-Chloro-2-(trifluoromethyl)benzyl]-1H-indazol-5-yl}methylidene)-3-{[(2S,4R)-4-hydroxy-1-(2-methoxyethyl)pyrrolidin-2-yl]methyl}-1,3-thiazolidine-2,4-dione] showed a pEC50 in experiment [1] of 7.22. This pEC50 and that of the molecule before are within 0.2 log units of each other.

`O=C1S/C(=C\c2ccc3c(cnn3Cc3ccc(Cl)cc3C(F)(F)F)c2)C(=O)N1C1(C(=O)O)CCC1` [Compound 235, 1-[(5Z)-5-({1-[4-Chloro-2-(trifluoromethyl)benzyl]-1H-indazol-5-yl}methylidene)-2,4-dioxo-1,3-thiazolidin-3-yl]cyclobutanecarboxylic acid] showed a pEC50 in experiment [1] of 7.35.
